The values below come from patent US10718028B2, “Fluorescent probes for abasic site detection” (CASE WESTERN RESERVE UIVERSITY, priority 2015, dated 2020).

Data set [1] is described as follows: Absorption and emission spectra of AP site binding probes in ethanol. The format is physicochemical. As to the method:
NMR spectra were recorded on a Varian Mercury 300 MHz, a Varian Inova 400, and a Varian Inova 600 MHz spectrometer at room temperature, except where otherwise noted. Chemical shifts for 1H NMR were reported as 6, parts per million, and referenced to CHCl3 at 7.26 ppm or TMS at 0 ppm. Chemical shifts for ^13C NMR were reported as 6 and referenced to the center line of the CDCl3 triplet at 77.0 ppm or CH2Cl2 pentet at 54.0 ppm. Low resolution mass spectra were recorded on a ThermoScientific LCQ Advantage or a Finnigan LCQ Deca mass spectrometer. Fluorescence data were collected on a Varian Cary Eclipse fluorescence spectrophotometer in a quartz cuvette with a 1 cm pathlength or on a Tecan Infinite M200 scanner. Absorbance data were collected on a Varian Cary 50 Bio UV-Visible Spectrophotometer in a quartz cuvette with a 1 cm path length.
To characterize the fluorescent properties, the absorption and emission spectra were collected for all final compounds.

Another data set can be described thus: Aqueous solubility. It counts as physicochemical.
For data set [2], the system named is AP sites in calf thymus DNA. Briefly: MX or ARP and Cy7MX genomic DNA competition assay. The format is binding. Conditions: for ED50 of Cy7MX, excess of competitor: 1 h at 37° C., constant Cy7MX; for ED50, molar ratio of probe to Cy7MX: calf thymus DNA heat/acid 45 min, FIG. 13. As to the method:
Calf thymus DNA was purchased from Sigma and was reconstituted overnight at 4° C. in either H2O or 500 mM MX (to eliminate basal AP sites) with gentle shaking (1.5 mL water or solution per 5 mg DNA). For samples reconstituted in MX solution, an ethanol precipitation was performed twice before heat and acid treatment (vide infra) then reconstituted in water. The DNA-water solution was aliquoted to 1.5 mL Eppendorf tubes (360 μL) and 10× Citrate buffer (1M NaCl, 100 μM monosodium phosphate, 100 μM monosodium citrate, pH 5.0) was added to a final concentration of 1×. For t=0 min samples, ice-cold 100% EtOH (1.0 mL) was added immediately and the Eppendorf tubes stored at −20° C. Other samples were placed in a 70° C. heating block for 15-90 minutes in 15-minute increments. Samples were removed from heat, precipitated in ice-cold 100% EtOH (1.0 mL), and then chilled at −20° C. for at least 20 minutes. Samples were centrifuged at 12,000×G for 10 min at 4° C. The supernatant was discarded. The process was repeated once beginning with the addition of EtOH (1.0 mL). The DNA pellet was dissolved in 700 μL H2O or TE buffer. Aliquots of 80 μL were put in 1.5 mL Eppendorf tubes. Any samples not used immediately were stored at −80° C.
Solutions of MX and Cy7MX were prepared in H2O varying [MX] from 0-1.9 M and maintaining at 25 μM. […] The ratios of MX:Cy7MX used in this study were: 0, 0.01, 0.1, 0.5, 1, 5, 10, 50, 100, 250, 500, 1000, 2500, 5000, 10000, 25000, 50000, and 75000. […] The following samples were prepared in triplicate: 20 μL of MX/Cy7MX solution was added to 80 μL aliquots of heat/acid treated DNA (t=45 min). Samples were incubated for 1 h at 37° C. in the dark. Ice-cold EtOH (1.0 mL) was added and the DNA was purified by EtOH precipitation three times as described in the heat/acid treatment of genomic DNA section. DNA was dissolved in 150 μL H2O. Aliquots (125 μL) of the samples were added to a black, clear-bottom 96 well plate (Corning) and analyzed with 750 nm excitation and 800 nm emission. Fluorescence was adjusted to DNA concentration.
As before (section 2.3.2) except solutions of ARP and Cy7MX were prepared in H2O varying [ARP] from 0-75 mM and maintaining at 1 μM. The ratios of ARP: Cy7MX used in this study were: 0, 0.1, 1, 10, 100, 500, 1000, 5000, 10000, 25000, 50000, and 75000.

For data set [3], the system named is DLD1 cells. The data set is described as follows: ARP analysis of FUDR treated DLD1 DNA. It counts as cell-based. Conditions: ARP-based DNA Damage Quantification Kit, same DNA samples. The procedure: DNA aliquots (10 μL) from above were diluted in TE buffer (10 μL). DNA concentrations were measured on a Nanodrop 1000 and adjusted to 100 μg/mL in TE buffer. Samples were prepared for ARP analysis using the ARP DNA Damage Quantification Kit (Dojindo #DK02-12). Samples were prepared and analyzed according to the manufacturer's instructions.

Data set [4] concerns DLD1 cells. The data set is described as follows: AP site evaluation in FUDR treated DLD1 cells with Cy7MX. The format is cell-based. As to conditions: 72 h continuous FUDR exposure, UDG KD cells, DNA treated in vitro with UDG. The procedure:
DLD1 cells (ATCC #CCL-221) were obtained from the laboratory of Sanford Markowitz at Case Western Reserve University. UDG directed shRNA clones and scrambled targeted control shRNA clones were purchased from Sigma-Aldrich. According to manufacturer's instructions from Lipofectamine 2000 (Invitrogen), HEK293 cells were transfected to produce lentiviral particles that were used to infect DLD1 cells. Forty-eight hours after transfection, DLD1 cells were diluted for passage and selected with puromycin. The UDG knockdown levels were verified by RT-PCR and Western blot analysis.
To allow for cell proliferation, the following approximate numbers of cells were plated for each time point given in parenthesis: 4 million (24 h), 1 million (48 h), and 0.3 million (72 h). Two mL of medium were removed from each plate and replaced with 2 mL of FUDR solution at a final concentration of 0, 10, 200, or 1000 nM in 10 mL. […]
Pure DNA pellets were dissolved in 200 μL 1×UDG buffer. […] DNA concentrations were measured and adjusted to a maximum of 300 μg/mL. Aliquots (125 μL) of the samples were added to a black, clear-bottom 96 well plate (Corning) and analyzed with 760 nm excitation and emission scan of 790-847 nm with a 3 nm step size. Integrated fluorescence intensities were adjusted to DNA concentration and normalized to the FUDR untreated KD+UDG sample.

The conditions of data set [5]: in EtOH; cited from earlier work.
The conditions of data set [6]: in EtOH; cited from earlier work. The source holds these as a separate data set.
In data set [7] the test system is AP sites in calf thymus DNA. The data set is described as follows: MX and Cy7MX genomic DNA blocking assay. Conditions: DNA pretreated with large excess of MX (1000×). The format is binding. The procedure:
FIG. 10 illustrates fluorescence response and MX blocking of Cy7MX. Calf thymus DNA treated with heat and acid for increments of 15 min to give a linear relative number of AP sites. AP DNA was then pretreated with MX (50 mM, +MX) or NaCl (50 mM, −MX) followed by incubation with Cy7MX (0.05 mM). Fluorescence measures show a linear response to Cy7MX when not blocked by MX.
Calf thymus DNA was purchased from Sigma and was reconstituted overnight at 4° C. in either H2O or 500 mM MX (to eliminate basal AP sites) with gentle shaking (1.5 mL water or solution per 5 mg DNA). For samples reconstituted in MX solution, an ethanol precipitation was performed twice before heat and acid treatment (vide infra) then reconstituted in water. The DNA-water solution was aliquoted to 1.5 mL Eppendorf tubes (360 μL) and 10× Citrate buffer (1M NaCl, 100 μM monosodium phosphate, 100 μM monosodium citrate, pH 5.0) was added to a final concentration of 1×. For t=0 min samples, ice-cold 100% EtOH (1.0 mL) was added immediately and the Eppendorf tubes stored at −20° C. […]
To 80 μL aliquots of DNA was added either 10 μL of MX (500 mM, pH 7) or vehicle control (500 mM NaCl). […] Aliquots (125 μL) of the samples were added to a black, clear-bottom 96 well plate (Corning) and analyzed with 700 nm excitation and 790 nm emission. Fluorescence was adjusted to DNA concentration.

Take `NOCCCOc1ccc2cc(-c3ccc(N)cc3)c(=O)oc2c1` [ACMX, 7-(3-(aminooxy)propoxy)-3-(4-aminophenyl)-2H-chromen-2-one]: in data set [1], the Stokes shift is recorded as 80 nm, the λabs max came out at 370 nm and the λem max came out at 450 nm. The aqueous solubility result in the data set “Aqueous solubility” is listed as “poor aqueous solubility”.
Turning to `NOCC(=O)NNC(=O)CCCC[C@@H]1SC[C@@H]2NC(=O)N[C@@H]21` [ARP], in data set [2], the “ED50 of Cy7MX, excess of competitor” value is 2600 × excess and the “ED50, molar ratio of probe to Cy7MX” value is recorded as 2600 fold excess. The “background and sensitivity of AP site detection” value in the data set on DLD1 cells [3] was “larger background and lower sensitivity than compound Cy7MX”.
For the compound `O=c1[nH]c(=O)n([C@H]2C[C@H](O)[C@@H](CO)O2)cc1F` [FUDR, 5-fluoro-20-deoxyuridine], the “increase in Cy7MX fluorescence intensity (AP sites)” value in the data set with DLD1 cells [4] was around 9 fold.
Consider `CC1(C)C(/C=C/C=C/C=C/C=C2\N(CCCCS(=O)(=O)O)c3ccc4ccccc4c3C2(C)C)=[N+](CCCCS(=O)(=O)[O-])c2ccc3ccccc3c21` [ICG, indocyanine green], for which the “fluorescence quantum yield Φ of the standard” value in data set [5] is 0.132. The “fluorescence quantum yield of the standard” value in data set [6] was 0.132.
On to `CON` [MX, methoxyamine], for which, in data set [2], the “ED50 of Cy7MX, excess of competitor” value was 3000 × excess and the “ED50, molar ratio of probe to Cy7MX” value was determined as 3000 fold excess. Besides, the “Cy7MX fluorescent intensity after pretreatment (blocking)” value in data set [7] is “significantly reduced”.
